Source: US10631540B2, “Plant disease control composition, and plant disease control method” (Sumitomo Chemical Company, Limited, priority 2015, dated 2020)

How the values were obtained:
[1] = tested on: Pythium damping-off pathogen (Pythium irregulare); assay: Soybean seed treatment test against Pythium damping-off (Test Example 1); type: in vivo; conditions: soybean (Hatayutaka) seed treatment; dose rate gai/100 kg seed where present: ethaboxam 3.75, metalaxyl 1.0, oxathiapiprolin 3.75; grown 15° C. 5 days then 25° C. 10 days
Procedure: An acetone solution containing the compounds was prepared such that the amounts of compounds to be treated for seeds were set to the dose rate listed in Table 1. 10 g of seeds of soybean (Hatayutaka) and 80 μl of the acetone solution were added to a plastic container, the container was covered with a lid and then shaken, and then the seeds taken out of the container were left overnight, thereby obtaining treated seeds. A plastic pot was filled with culture soil, and the treated seeds were sowed and then were covered with culture soil mixed with seeds of grass turf which was infected with Pythium damping-off pathogen (Pythium irregulare). After irrigation, the seeds were grown at 15° C. for 5 days and then grown at 25° C. for 10 days. This area was set to a treated area. Further, soybeans were grown in the same manner as in the treated area except that a chemical agent was not applied to the seeds. This area was set to a non-treated area. The incidence of disease of plants in the treated area and the non-treated area were calculated using the following “Equation 1”. The control values were calculated using the following “Equation 2”. […] A: Incidence of disease of plants of non-treated area B: Incidence of disease of plants of treated area

[2] = tested on: Pythium damping-off pathogen (Pythium ultimum); assay: Soybean seed treatment test against Pythium damping-off (Test Example 2); type: in vivo; conditions: soybean (Hatayutaka) seed treatment; dose rate gai/100 kg seed where present: ethaboxam 3.75, metalaxyl 1.0, oxathiapiprolin 3.75; grown 15° C. 5 days then 25° C. 10 days
Procedure: An acetone solution containing the compounds was prepared such that the amounts of compounds to be treated for seeds were set to the dose rate listed in Table 2. 10 g of seeds of soybean (Hatayutaka) and 80 μl of the acetone solution were added to a plastic container, the container was covered with a lid and then shaken, and then the seeds taken out of the container were left overnight, thereby obtaining treated seeds. A plastic pot was filled with culture soil, and the treated seeds were sowed and then were covered with culture soil mixed with seeds of grass turf which was infected with Pythium damping-off pathogen (Pythium ultimum). After irrigation, the seeds were grown at 15° C. for 5 days and then grown at 25° C. for 10 days. This area was set to a treated area. Further, soybeans were grown in the same manner as in the treated area except that a chemical agent was not applied to the seeds. This area was set to a non-treated area. The incidence of disease of plants in the treated area and the non-treated area were calculated using the above-described “Equation 1”. The control values were calculated using the above-described “Equation 2”.

SMILES	Control value (%) [1]	Control value (%) [2]
COCC(=O)N(c1c(C)cccc1C)C(C)C(=O)OC (racemic) [Metalaxyl, metalaxyl]	6%	0%
CCNc1nc(CC)c(C(=O)NC(C#N)c2cccs2)s1 (stereo not drawn) [Ethaboxam, ethaboxam]	9%	14%
Cc1cc(C(F)(F)F)nn1CC(=O)N1CCC(c2nc(C3=NOC(c4c(F)cccc4F)C3)cs2)CC1 (stereo not drawn) [Oxathiapiprolin, oxathiapiprolin]	6%	14%
